Assay results from PMC2826609 (Peptides, 2009).
Positions of bridges follow the written chain, without caps; N, C: chain ends. Residues, ends and D or L forms follow the SMILES beside them.

Tests used:
[1] = target: Aedes aegypti allatostatin-C receptor AeAS-CrA (Aedes aegypti, UniProt A0A411JKC3); assay type: cell-based
[2] = target: Aedes aegypti allatostatin-C receptor AeAS-CrB (Aedes aegypti, UniProt A0A411JKA7); assay type: cell-based

For `CC[C@H](C)[C@H](NC(=O)[C@@H](N)CCC(N)=O)C(=O)N[C@@H](CCCNC(=N)N)C(=O)N[C@@H](Cc1ccc(O)cc1)C(=O)N[C@@H](CCCNC(=N)N)C(=O)N[C@@H](CCC(N)=O)C(=O)N[C@H]1CSSC[C@@H](C(=O)N[C@@H](Cc2ccccc2)C(=O)O)NC(=O)[C@H](CO)NC(=O)[C@H]([C@@H](C)CC)NC(=O)[C@@H]2CCCN2C(=O)[C@H](CC(N)=O)NC(=O)[C@H](Cc2ccccc2)NC(=O)[C@H](Cc2ccc(O)cc2)NC1=O` [AS-C] (H-QIRYRQCYFNPISCF-OH; disulfide 7-14), the EC50 [1] was 0.089 ± 0.0185 µM and the EC50 [2] was 0.0277 ± 0.0072 µM.
APFRNSEMMTARGF [AT] was tested, and the “FLIPR signal, peptide selectivity (AeAS-CrA)” value ([1]; AeAS-CrA, HEK293T/Gα16gust44 cells, results not shown) was “no signal was detected” and the “FLIPR signal, peptide selectivity (AeAS-CrB)” value ([2]; AeAS-CrB, HEK293T/Gα16gust44 cells, results not shown) was “no signal was detected”.
